# Laboratory results from patent US11596642B2, “Therapeutic treatment of breast cancer based on c-MAF status” (INBIOMOTION S.L., priority 2016, dated 2023).
# How the values were obtained:
# Format in all cases: in vivo, human
# [1] = tested on: breast cancer; assay: AZURE trial, MAF FISH stratification: invasive disease free survival (IDFS) / time to recurrence; details: MAF positive patients (>=2.2) in the zoledronic acid treatment arm; p<0.001, multivariate analysis
# Excerpt: (§1) The MAF FISH assay was produced by Kreatech for Inbiomotion based on KREATECH proprietary FISH technology. The probe set contains two probes: a MAF 16q23 probe plus a D16Z3 probe as control of chromosome 16 centromeric region. The assay was validated using a 16q23/D16Z3 probe (Inbiomotion) and Poseidon Tissue Digestion Kit from Kreatech. The scoring criteria were defined in a fact sheet and as follows: two FISH evaluable results per patient, and the highest value was selected. The scoring algorithm was as follows: 20 cells counted for target and centromere amplification, if the gene count is >2 and ≤3, then 50 cells were counted. […]
# (§2) numerical and categorical (+/− cut-off>=2.5) variable; % of nucleic MAF amplified (MAF CN>2):numberical+categorical (cut-off TBD). […] The following clinical variables were analyzed: disease-free survival (DFS), invasive disease-free survival (IDFS), overall survival (OS), first recurrence in bone, bone recurrence at any time, time to first DFS event in bone, time to first DFS event not in bone, response to zoledronic acid treatment.
# (§3) In analyzing the MAF FISH prognostic value, the patients from the control and treatment arms were pooled for the initial analysis. Optimized cut-offs for each variable to be analyzed were used when indicated. […]
# [2] = tested on: breast cancer; assay: AZURE trial, MAF FISH stratification: overall survival (OS); details: MAF negative post menopausal patients; zoledronic acid treatment; 95% CI 0.31-1.01
# Excerpt: as §1, §2, §3
# [3] = tested on: breast cancer; assay: AZURE trial, MAF FISH stratification: disease free survival (DFS); details: MAF negative post menopausal patients; zoledronic acid treatment; 95% CI 0.33-0.95
# Excerpt: as §1, §2, §3
# [4] = tested on: breast cancer; assay: AZURE trial, retrospective MAF FISH stratification: time to bone metastasis (zoledronic acid arm vs control arm)
# Excerpt: The MAF FISH assay was produced by Kreatech for Inbiomotion based on KREATECH proprietary FISH technology. The probe set contains two probes: a MAF 16q23 probe plus a D16Z3 probe as control of chromosome 16 centromeric region. The assay was validated using a 16q23/D16Z3 probe (Inbiomotion) and Poseidon Tissue Digestion Kit from Kreatech. The scoring criteria were defined in a fact sheet and as follows: two FISH evaluable results per patient, and the highest value was selected. The scoring algorithm was as follows: 20 cells counted for target and centromere amplification, if the gene count is >2 and ≤3, then 50 cells were counted.
# An overview of the AZURE clinical trial (Coleman et al N Eng J Med 2011; 365: 1396-1405 and AZURE Current Controlled Trials number, ISRCTN79831382 and ClinicalTrials.gov identifier NCT00072020) study design, whose patients were used to validate MAF, is provided in FIG. 2. MAF was validated in a retrospective analysis of the AZURE trial using patient tumor sample prospectively collected under regulatory compliant conditions. Out of the 3360 patients recruited, 1,769 donated tumor tissue (52.4%). There were 13 TMAs (tissue micro array) (150 patient samples each) (1,769 patients). There were 4 replicas of each TMA using different tissue cores (6,326 (4×patient)). One TMA had only 1 replica and two TMAs had three replicas. Based on the H&E analysis (hematoxilyin and eosin) (FIG. 3) (6,326): 3978 cores were evaluable (63%) and 2348 were nonevaluable.
# For the FISH assay, there were 2,067 FISH evaluable cores (56%). […] 567 patients were nonevaluable by FISH in any of the 4 replicas (32%).
# numerical and categorical (+/− cut-off>=2.5) variable; % of nucleic MAF amplified (MAF CN>2):numberical+categorical (cut-off TBD). For the IHC analysis: IHC H-Score: numerical+categorical (cut-off=200), IHC OD: numerical+categorical (cut-off tBD). The following clinical variables were analyzed: disease-free survival (DFS), invasive disease-free survival (IDFS), overall survival (OS), first recurrence in bone, bone recurrence at any time, time to first DFS event in bone, time to first DFS event not in bone, response to zoledronic acid treatment.
# In analyzing the MAF FISH prognostic value, the patients from the control and treatment arms were pooled for the initial analysis. Optimized cut-offs for each variable to be analyzed were used when indicated. Death as a competing event was used in time to bone metastasis, anytime. The following clinical variables were analyzed: time to bone metastasis (anytime), time to bone metastasis (as first event), IDFS (including ipsilateral invasive breast tumor recurrence, regional invasive breast cancer recurrence, metastatic disease-breast cancer, death attributable to any cause, including breast cancer, contralateral invasive breast cancer, second primary non-breast invasive cancer), and overall survival.
# The control and zoledronic acid treatment arms from the AZURE study described in Example 1 were evaluated to determine the effect of zoledronic acid treatment on MAF-stratified patients.
compound,measurement,setting,value
O=P(O)(O)C(O)(Cn1ccnc1)P(=O)(O)O [zoledronic acid],"Hazard ratio (HR), time to recurrence (invasive disease)",[1],0.52
same,"Hazard ratio (HR), overall survival outcome",[2],0.56
same,"Hazard ratio (HR), DFS outcome",[3],0.56
same,"Hazard ratio (HR), risk of bone metastasis at any time","[4]; MAF FISH not positive patients, pre-specified cut off 2.5, zoledronic acid treatment vs control, death as competing event, p=0.03",0.65
same,"Hazard ratio (HR), time to a bone metastatic event (anytime)","[4]; MAF non-positive non-post-menopausal patients, cut off 2.5, p=0.08",0.66
same,"Hazard ratio (HR), time to a bone metastatic event (anytime)","[4]; MAF non-positive postmenopausal patients, cut off 2.5, limited number of events",0.63
same,"Hazard ratio (HR), time to a bone metastatic event (anytime)","[4]; MAF positive non-post-menopausal patients, cut off 2.5, p=0.045",2.44
same,"Hazard ratio (HR), risk of bone metastasis at any time","[4]; MAF positive patients, cut off 2.5, zoledronic acid treatment vs control, non-significant, p=0.22",1.54
same,"Hazard ratio (HR), time to a bone metastatic event (anytime)","[4]; MAF positive postmenopausal patients (>2.5), treatment outcome, p=0.26, limited number of events",0.46
same,"Hazard ratio (HR), risk of bone metastasis at any time","[4]; zoledronic acid arm, MAF FISH not positive (<2.3) compared to MAF FISH positive patients, p=0.01",0.52
